In patent US8299040B2, “Methods for treating cancer targeting transglutaminase” (Board of Regents, The University of Texas System, priority 2006, dated 2012):

Key:
MDA-Panc28 cells [1] = experiment: Acidic vesicular organelles / autophagy by acridine orange FACS; format: cell-based, human; conditions: 48 h, flow cytometry; control cells 8%
Procedure: To detect and quantify acidic vesicular organelles, cells were stained with acridine orange as described previously. The number of acridine orange-positive cells was determined by fluorescence-activated cell sorting (FACS) analysis. Cell morphology was examined using phase-contrast and fluorescence microscopy (Nikon, Melville, N.Y., USA) with the cells remaining in their culture flasks.
Exponentially growing untreated MDA-Panc28 cells were plated 24 h before transfection. Plated cells were transfected with double-stranded siRNA targeting TG2 mRNA and control (non-silencing) siRNA (all from Qiagen, Venlo, Netherlands) and/or the green fluorescent protein (GFP) and microtubule-associated protein 1 light chain 3 (LC3) fusion vector (GFP-LC3) using the Qiagen transfection reagent according to the manufacturer's protocol. Two siRNA sequences targeting TG2 were designed using siRNA-designing software (Qiagen). PKCδ siRNA was obtained from Santa Cruz Biotechnology (Santa Cruz, Calif., USA). Untransfected cells and non-silencing control siRNA-transfected cells were used as negative controls. After treatment, the cells were harvested for western blot analysis or FACS analysis to determine whether autophagy had occurred.

MDA-Panc28 cells [2] = experiment: Growth inhibition in MDA-Panc28 cells; format: cell-based; conditions: Homo sapiens, MDA-Panc-28; 4 μM for 48 h; read-out: inhibition in cell growth
Procedure: (§1) Pancreatic cell lines MDA-Panc28, Capan-2, Bx-PC3, Panc1 and MIAPaCa were provided by Dr. Shrikant Reddy (M. D. Anderson Cancer Center). MDA-Panc28 and Bx-PC3 cell lines were maintained in RPMI-1640 medium supplemented with 10% fetal calf serum. Panc1 and MIAPaCa cell lines and Capan-2 cells were maintained in DMEM and McCoy's 5A, respectively. All media were supplemented with 10% fetal calf serum. For the cell proliferation experiments, cells were seeded at a density of 1-2×10^5 cells in T-25 tissue culture flasks. Twenty-four hours after the seeding, cells were treated with various concentrations of rottlerin for the indicated periods of time. Adherent cells were collected by trypsinization, and cell numbers were determined using a Neubauer cell counting chamber. All experiments were replicated at least two times.

PKCδ = target: T1, PKCδ (Homo sapiens, UniProt Q05655); experiment: PKCδ protein expression in MDA-Panc28 cells (western blot); format: cell-based; conditions: 48 h
T1 construct: endogenous in cells; host or cells: MDA-Panc28
Procedure: (A) Cells at 80% confluence were treated with 1 μM, 2 μM or 4 μM rottlerin. After 48 h of treatment, the cells were lysed and cell lysates were fractionated by sodium dodecyl sulfate polyacrylamide gel electrophoresis (SDS-PAGE) and transferred onto nitrocellulose membrane to determine PKCδ and TG2 protein expression by western blot analysis. […] Experiments were repeated at least three times.
After treatment, the cells were collected and centrifuged, and whole-cell lysates were obtained using a lysis buffer. Total protein concentration was determined using a DC protein assay kit (Bio-Rad, Hercules, Calif., USA). […] Aliquots containing 30 μg of total protein from each sample were subjected to sodium dodecyl sulfate-polyacrylamide gel electrophoresis (SDS-PAGE) with a 4-20% gradient and electrotransferred to nitrocellulose membranes. The membranes were blocked with 5% dry milk in tris-buffered saline-tween 20 (TBST), probed with primary antibodies diluted in TBST containing 2.5% dry milk and incubated at 4° C. overnight. […] Mouse anti-β-actin and donkey anti-mouse secondary antibody were purchased from Sigma Chemical (St. Louis, Mo., USA) so that β-actin expression could be monitored to ensure equal loading of proteins. […] The blots were visualized with a Fluor Chem 8900 imager and quantified by a densitometer using the Alpha Imager application program (Alpha Innotech). […]

MDA-Panc28 cells [3] = experiment: Apoptosis in MDA-Panc28 cells (sub-G1 FACS, PARP cleavage); format: cell-based, human
Procedure: PARP cleavage positive cell lysate was used as a positive control. (C) Morphological changes after treatment with rottlerin. Microphotographs were taken using a phase-contrast microscope (300× magnification). Left panel, untreated cells at 48 h of treatment; center panel, cells treated for 48 h, and right panel, cells treated for 96 h.

Beclin 1 = Beclin 1 expression in MDA-Panc28 cells; format: cell-based, human; conditions: MDA-Panc28, data not shown
TG2 = TG2 protein expression in MDA-Panc28 cells (western blot); format: cell-based, human; conditions: 48 h
Procedure: (A) Cells at 80% confluence were treated with 1 μM, 2 μM or 4 μM rottlerin. After 48 h of treatment, the cells were lysed and cell lysates were fractionated by sodium dodecyl sulfate polyacrylamide gel electrophoresis (SDS-PAGE) and transferred onto nitrocellulose membrane to determine PKCδ and TG2 protein expression by western blot analysis. The membrane was stripped and reprobed with an anti-β-actin antibody to confirm equal loading of protein in each lane. (B) Total RNA was extracted, and transcript levels of TG2 and β-actin were determined by RT-PCR analysis as described in Materials and Methods. Relative expression levels were determined by densitometry as compared with β-actin. Experiments were repeated at least three times.
(§2) After treatment, the cells were collected and centrifuged, and whole-cell lysates were obtained using a lysis buffer. Total protein concentration was determined using a DC protein assay kit (Bio-Rad, Hercules, Calif., USA). […] Mouse anti-β-actin and donkey anti-mouse secondary antibody were purchased from Sigma Chemical (St. Louis, Mo., USA) so that β-actin expression could be monitored to ensure equal loading of proteins. […] The blots were visualized with a Fluor Chem 8900 imager and quantified by a densitometer using the Alpha Imager application program (Alpha Innotech). […]

[4] = tested on: Bx-PC3, MIAPaCa, MDA-Panc28, Panc1 and Capan-2 cells; experiment: Growth inhibition in pancreatic cancer cell lines; format: cell-based, human
Procedure: (A) Different pancreatic cancer cell lines were treated with rottlerin (4 μM) for 48 h, and viable cells were detected by proliferation assay using Alamar Blue staining. Bars represent growth inhibition after normalizing untreated cells to 100%. (B) Growth of the indicated cell lines after treatment with rottlerin (4 μM) for 48 and 96 h.
as §1

[5] = tested on: MDA-Panc28, Capan-2, Bx-PC3, Panc1 and MIAPaCa cells; experiment: LC3-II accumulation (autophagy) in pancreatic cancer cell lines, western blot; format: cell-based, human; conditions: 4 μM for 48 h
Procedure: (A) A panel of pancreatic cancer cell lines including MDA-Panc28, Capan-2, Bx-PC3, Panc1 and MIAPaCa cells were treated with Rottlerin (4 μM) for 48 h for the detection of LC3-II and TG2 expression by western blot. (B) MCF-7 cell line was also tested for LC3-II and TG2 expression by western blot. (C) Expression of TG2 in MDA-Panc28 cells was determined upon exposure to different treatments (D) Detection of autophagolysosomes; MDA-Panc28 cells were treated with either control siRNA, Rottlerin or TG2 siRNA for 48 h. Photomicrographs show morphological changes of the cells by phase contrast microscopy (left panels); acridine orange staining of the acidic vesicular organelles by fluorescent microscopy (center panels) and the localization LC3-II at autophagosomes in cells after transfection with GFP-LC3 plasmid (right panels). […]
as §2

T1 sequence (Q05655 whole entry): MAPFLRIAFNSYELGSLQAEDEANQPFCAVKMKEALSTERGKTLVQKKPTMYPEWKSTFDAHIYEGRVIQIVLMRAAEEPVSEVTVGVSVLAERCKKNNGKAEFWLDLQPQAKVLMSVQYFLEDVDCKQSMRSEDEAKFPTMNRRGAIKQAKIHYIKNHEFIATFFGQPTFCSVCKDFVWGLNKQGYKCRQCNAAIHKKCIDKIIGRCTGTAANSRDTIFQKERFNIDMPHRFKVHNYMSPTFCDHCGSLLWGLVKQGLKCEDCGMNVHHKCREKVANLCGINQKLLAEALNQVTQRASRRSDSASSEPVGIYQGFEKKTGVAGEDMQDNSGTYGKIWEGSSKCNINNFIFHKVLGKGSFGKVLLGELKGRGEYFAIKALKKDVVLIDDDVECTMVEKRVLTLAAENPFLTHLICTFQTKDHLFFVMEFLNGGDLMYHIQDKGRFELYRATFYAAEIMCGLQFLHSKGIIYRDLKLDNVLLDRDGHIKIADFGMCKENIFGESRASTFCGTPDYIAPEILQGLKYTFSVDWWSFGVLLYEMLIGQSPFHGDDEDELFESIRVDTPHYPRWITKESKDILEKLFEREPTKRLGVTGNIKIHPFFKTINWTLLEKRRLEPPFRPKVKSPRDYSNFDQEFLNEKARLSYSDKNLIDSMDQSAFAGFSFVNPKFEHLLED

SMILES: CC(=O)c1c(O)c(C)c(O)c(Cc2c(O)c3c(c(C(=O)/C=C/c4ccccc4)c2O)OC(C)(C)C=C3)c1O [rottlerin]
- percentage of red fluorescein-positive cells (acidic vesicular organelles) (MDA-Panc28 cells [1]): 64%
- inhibition at 4 µM (MDA-Panc28 cells [2]): 49%
- inhibition of PKCδ protein expression (PKCδ; 2 μM): 72%
- inhibition of PKCδ protein expression (PKCδ; 4 μM): 94%
- apoptosis (accumulation in sub-G1 phase) (MDA-Panc28 cells [3]; 4 μM for 48 h, FACS): failed to promote any apoptosis
- PARP cleavage (MDA-Panc28 cells [3]; Western blot): failed to show any poly ADP-ribose polymerase (PARP) cleavage
- Beclin 1 expression (Beclin 1): Expression levels did not change
- inhibition of TG2 protein expression (TG2; 1 μM): 44%
- inhibition of TG2 protein expression (maximum) (TG2; 4 μM): 94%
- growth inhibition ([4]; 4 μM for 48 h, five cell lines): induced growth inhibition in all five cell lines tested
- time course of growth inhibition ([4]; 4 μM, 48 and 96 h, MDA-Panc28, Bx-PC3, MIAPaCa): time-dependent inhibition in cell growth of all three
- endogenous LC3-II accumulation [5]: significant increase in endogenous LC3-II accumulation
